Active and inactive are the calls of the source. No cut-off for these calls is given here.
Legend:
SW1990 [1] = assay: Effect on CDK1 gene expression in human SW1990 cells at 1 uM in presence of Olaparib by Q-PCR analysis; assay type: functional, cell-based
SW1990 [2] = assay: Antiproliferative activity against human SW1990 cells assessed as inhibition of cell growth measured after 5 days by MTT assay; assay type: functional, cell-based; conditions: SW1990, 120 h
CFPAC-1 [3] = assay: Antiproliferative activity against human CFPAC-1 cells assessed as inhibition of cell growth measured after 4 days by MTT assay; assay type: functional, cell-based; conditions: CFPAC-1, 96 h
SW1990 [4] = assay: Effect on FOXO1 gene expression in human SW1990 cells at 4 uM by Q-PCR analysis; assay type: functional, cell-based
Mus musculus [5] = species: Mus musculus; conditions: dose 15.0 mg/kg, route ip, time 28.0 day
SW1990 [6] = assay: Antiproliferative activity against human SW1990 cells assessed as inhibition of cell growth after 3 days by MTT assay; assay type: functional, cell-based; conditions: SW1990, 72 h
[7] = Toxicity in nude mouse xenografted with human SW1990 cells assessed as liver damage at 15 mg/kg, ip administered for 28 days in presence of 45 mg/kg Olaparib by H and E staining based fluorescence microscopic analysis; assay type: organism-based; conditions: in vivo, 672 h, time 28 day
HCT-116 = assay: Antiproliferative activity against BRCA2-mutated human HCT-116 cells assessed as inhibition of cell growth measured after 7 days by MTT assay; assay type: functional, cell-based; conditions: HCT-116, 168 h
SW1990 [8] = assay: Effect on CCNB1 gene expression in human SW1990 cells at 4 uM by Q-PCR analysis; assay type: functional, cell-based
SW1990 [9] = assay: Induction of apoptosis in human SW1990 cells assessed as early apoptotic cells at 4 uM measured after 4 days by Annexin V-FITC and propidium iodide staining based flow cytometry (reference value: 1.62%); assay type: functional; conditions: time 4 day
[10] = Toxicity in nude mouse xenografted with human SW1990 cells assessed as lung damage at 15 mg/kg, ip administered for 28 days by H and E staining based fluorescence microscopic analysis; assay type: organism-based; conditions: in vivo, 672 h, time 28 day
CFPAC-1 [11] = assay: Antiproliferative activity against human CFPAC-1 cells assessed as inhibition of cell growth measured after 7 days by MTT assay; assay type: functional, cell-based; conditions: CFPAC-1, 168 h
CAPAN-1 [12] = assay: Antiproliferative activity against human CAPAN-1 cells assessed as inhibition of cell growth measured after 7 days by MTT assay; assay type: functional, cell-based; conditions: CAPAN-1, 168 h
CFPAC-1 [13] = assay: Antiproliferative activity against human CFPAC-1 cells assessed as inhibition of cell growth measured after 3 days by MTT assay; assay type: functional, cell-based; conditions: CFPAC-1, 72 h
CAPAN-1 [14] = assay: Antiproliferative activity against human CAPAN-1 cells assessed as inhibition of cell growth measured after 5 days by MTT assay; assay type: functional, cell-based; conditions: CAPAN-1, 120 h
MDA-MB-468 = assay: Antiproliferative activity against BRCA-proficient human MDA-MB-468 cells assessed as inhibition of cell growth measured after 7 days by MTT assay; assay type: functional, cell-based; conditions: MDA-MB-468, 168 h
SW1990 [15] = assay: Induction of cell cycle arrest in human SW1990 cells assessed as accumulation of cells at G2/M phase at 4 uM incubated for 4 days by propidium iodide staining based flow cytometry (reference value: 5.89%); assay type: functional; conditions: time 4 day
SW1990 [16] = assay: Downregulation of Ki67 expression in human SW1990 cells at 15 mg/kg, ip measured after 28 days by immuno histochemical staining based fluorescence microscopic analysis; assay type: functional, organism-based; conditions: time 28.0 day
CAPAN-1 [17] = assay: Antiproliferative activity against human CAPAN-1 cells assessed as inhibition of cell growth measured after 3 days by MTT assay; assay type: functional, cell-based; conditions: CAPAN-1, 72 h
SW1990 [18] = assay: Antiproliferative activity against human SW1990 cells assessed as inhibition of cell growth measured after 7 days by MTT assay; assay type: functional, cell-based; conditions: SW1990, 168 h
THP-1 = assay: Antiproliferative activity against human THP-1 cells expressing BRD4 assessed as inhibition of cell growth measured after 3 days by MTT assay; assay type: functional, cell-based; conditions: THP-1, 72 h
SW1990 [19] = assay: Effect on CCNB1 gene expression in human SW1990 cells at 6 uM by Q-PCR analysis; assay type: functional, cell-based
[20] = Toxicity in nude mouse xenografted with human SW1990 cells assessed as kidney damage at 45 mg/kg, ip administered for 28 days by H and E staining based fluorescence microscopic analysis; assay type: organism-based; conditions: in vivo, 672 h, time 28 day
SW1990 [21] = assay: Effect on E2F2 gene expression in human SW1990 cells at 6 uM by Q-PCR analysis; assay type: functional, cell-based
SW1990 [22] = assay: Effect on c-Myc gene expression in human SW1990 cells at 6 uM by Q-PCR analysis; assay type: functional, cell-based
CFPAC-1 [23] = assay: Antiproliferative activity against human CFPAC-1 cells assessed as inhibition of cell growth measured after 5 days by MTT assay; assay type: functional, cell-based; conditions: CFPAC-1, 120 h
SW1990 [24] = assay: Effect on CCND1 gene expression in human SW1990 cells at 6 uM by Q-PCR analysis; assay type: functional, cell-based
SW1990 [25] = assay: Upregulation of BRCA1 expression in human SW1990 cells at 6 uM measured after 4 days by Western blot analysis; assay type: functional, cell-based; conditions: time 4.0 day
SW1990 [26] = assay: Induction of BRCA1 accumulation in nucleus of human SW1990 cells at 6 uM measured after 4 days by Western blot analysis; assay type: functional, cell-based; conditions: time 4.0 day
Mus musculus [27] = assay: Inhibition of homologous recombinant repair in nude mouse xenografted with human SW1990 cells assessed as reversal of olaparib-induced c-Myc expression at 30 mg/kg, ip measured after 4 days by Western blot analysis; assay type: functional, organism-based; conditions: time 4.0 day
SW1990 [28] = assay: Effect on CDK1 to 2 gene expression in human SW1990 cells at 1 to 2 uM by Q-PCR analysis; assay type: functional, cell-based; conditions: dose 1-2 µM
[29] = biological target: Poly [ADP-ribose] polymerase 1 (Homo sapiens, UniProt P09874); assay: Inhibition of PARP1 (unknown origin) using biotinylated NAD+ as substrate by microplate reader method
Chain of Poly [ADP-ribose] polymerase 1 (P09874 whole entry): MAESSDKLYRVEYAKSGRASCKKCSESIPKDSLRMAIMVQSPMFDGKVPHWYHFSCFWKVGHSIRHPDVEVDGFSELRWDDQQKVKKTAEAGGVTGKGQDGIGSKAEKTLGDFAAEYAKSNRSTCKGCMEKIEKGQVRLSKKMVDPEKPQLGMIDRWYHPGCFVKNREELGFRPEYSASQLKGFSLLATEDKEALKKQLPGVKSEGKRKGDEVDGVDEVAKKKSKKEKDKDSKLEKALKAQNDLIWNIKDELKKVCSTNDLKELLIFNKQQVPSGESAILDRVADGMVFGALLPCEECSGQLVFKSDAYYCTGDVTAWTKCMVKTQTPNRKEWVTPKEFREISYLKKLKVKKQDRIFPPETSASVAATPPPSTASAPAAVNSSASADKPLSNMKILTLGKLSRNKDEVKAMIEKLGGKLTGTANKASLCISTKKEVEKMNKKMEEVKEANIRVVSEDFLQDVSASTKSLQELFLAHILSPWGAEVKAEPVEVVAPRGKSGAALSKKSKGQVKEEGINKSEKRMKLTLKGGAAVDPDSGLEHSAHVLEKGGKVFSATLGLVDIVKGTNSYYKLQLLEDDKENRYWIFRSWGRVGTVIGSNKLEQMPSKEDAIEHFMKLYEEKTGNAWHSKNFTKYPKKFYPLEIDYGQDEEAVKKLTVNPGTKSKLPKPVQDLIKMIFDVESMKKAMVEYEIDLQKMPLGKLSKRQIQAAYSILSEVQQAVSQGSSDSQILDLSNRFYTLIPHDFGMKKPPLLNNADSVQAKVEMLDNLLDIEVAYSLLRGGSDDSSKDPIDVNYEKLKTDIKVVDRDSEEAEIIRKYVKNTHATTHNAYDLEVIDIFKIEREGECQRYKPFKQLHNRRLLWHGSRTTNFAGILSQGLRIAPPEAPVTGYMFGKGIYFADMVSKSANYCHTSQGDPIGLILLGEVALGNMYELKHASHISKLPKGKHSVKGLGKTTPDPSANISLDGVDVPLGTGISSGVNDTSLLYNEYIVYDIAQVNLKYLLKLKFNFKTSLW

[30] = biological target: Bromodomain-containing protein 4 (Homo sapiens, UniProt O60885); assay: Inhibition of BRD4-BD1/2 (unknown origin)
SW1990 [31] = assay: Induction of apoptosis in human SW1990 cells assessed as late apoptotic cells at 2 uM measured after 4 days by Annexin V-FITC and propidium iodide staining based flow cytometry (reference value: 7.23%); assay type: functional; conditions: time 4 day
[32] = Toxicity in nude mouse xenografted with human SW1990 cells assessed as liver damage at 30 mg/kg, ip administered for 28 days by H and E staining based fluorescence microscopic analysis; assay type: organism-based; conditions: in vivo, 672 h, time 28 day
Mus musculus [33] = assay: Inhibition of homologous recombinant repair in nude mouse xenografted with human SW1990 cells assessed as reversal of olaparib-induced TOPBP1 expression at 30 mg/kg, ip measured after 4 days by Western blot analysis; assay type: functional, organism-based; conditions: time 4.0 day
Mus musculus [34] = assay: Inhibition of BRD4 expression in nude mouse xenografted with human SW1900 cells at 30 mg/kg, ip administered for 28 days by Q-PCR analysis; assay type: functional, organism-based; conditions: time 28.0 day
SW1990 [35] = assay: Effect on TOPBP1 gene expression in human SW1990 cells at 1 to 2 uM by Q-PCR analysis; assay type: functional, cell-based; conditions: dose 1-2 µM
Mus musculus [36] = assay: Inhibition of CDK6 expression in nude mouse xenografted with human SW1990 cells at 30 mg/kg, ip measured after 4 days by Western blot analysis; assay type: functional, organism-based; conditions: time 4.0 day

Cc1sc2c(c1C)C(c1ccc(Cl)cc1)=N[C@@H](CC(=O)OC(C)(C)C)c1nnc(C)n1-2
Activity (SW1990 [1]): Active | IC50 (SW1990 [2]): 1110 nM | IC50 (CFPAC-1 [3]): 1860 nM | Activity (SW1990 [4]): Active | inhibition (Mus musculus [5]): Active | IC50 (SW1990 [6]): 31600 nM | Activity [7]: Non-Toxic | IC50 (HCT-116): 2030 nM | Activity (SW1990 [8]): Active | Activity (SW1990 [9]): 1.73% | Activity [10]: Non-Toxic | IC50 (CFPAC-1 [11]): 350 nM | IC50 (CAPAN-1 [12]): 450 nM | IC50 (CFPAC-1 [13]): 13900 nM | IC50 (CAPAN-1 [14]; read-out: IC50): 580 nM | IC50 (MDA-MB-468): 540 nM | Activity (SW1990 [15]): 5.51% | Activity (SW1990 [16]): Active | IC50 (CAPAN-1 [17]): 24100 nM | IC50 (SW1990 [18]): 630 nM | IC50 (THP-1): 330 nM

O=C(c1cc(Cc2n[nH]c(=O)c3ccccc23)ccc1F)N1CCN(C(=O)C2CC2)CC1 [OLAPARIB]
IC50 (SW1990 [2]): 4930 nM | Activity (SW1990 [19]): Active | Activity [20]: Non-Toxic | IC50 (SW1990 [6]): 19400 nM | Activity (SW1990 [21]): Active | IC50 (HCT-116): 7320 nM | Activity (SW1990 [22]): Active | IC50 (CFPAC-1 [11]): 7440 nM | IC50 (CAPAN-1 [12]): 2610 nM | IC50 (CFPAC-1 [23]): 9870 nM | IC50 (CFPAC-1 [13]): 28700 nM | IC50 (CAPAN-1 [14]): 5340 nM | IC50 (MDA-MB-468): 1830 nM | Activity (SW1990 [24]): Active | Activity (SW1990 [25]): Active | IC50 (CAPAN-1 [17]): 25200 nM | IC50 (SW1990 [18]): 3630 nM | Activity (SW1990 [26]): Active | IC50 (THP-1): 32300 nM

Cc1noc(C)c1-c1ccc2c(c1)C(c1ccccc1)N(Cc1nc3c(C(N)=O)cccc3[nH]1)C(=O)N2C (stereo not drawn)
inhibition (Mus musculus [27]): Active | IC50 (SW1990 [2]): 980 nM | IC50 (CFPAC-1 [3]): 1310 nM | Activity (SW1990 [28]): Active | IC50 (SW1990 [6]): 11700 nM | IC50 (HCT-116): 1440 nM | IC50 [29]: 49 nM | IC50 [30]: 202 nM | IC50 (CFPAC-1 [11]): 210 nM | IC50 (CAPAN-1 [12]): 170 nM | IC50 (CFPAC-1 [23]): 980 nM | Activity (SW1990 [31]): 39.5% | Activity [32]: Non-Toxic | inhibition (Mus musculus [33]): Active | inhibition (Mus musculus [34]): Active | IC50 (CFPAC-1 [13]): 2430 nM | IC50 (CAPAN-1 [14]; read-out: IC50): 410 nM | IC50 (MDA-MB-468): 90 nM | Activity (SW1990 [35]): Active | inhibition (Mus musculus [36]): Active | IC50 (CAPAN-1 [17]): 7210 nM | IC50 (SW1990 [18]): 560 nM | IC50 (THP-1): 430 nM

Source: ChEMBL document CHEMBL5131471, “Design, synthesis and mechanism studies of novel dual PARP1/BRD4 inhibitors against pancreatic cancer” (Eur J Med Chem, 2022)
